Non-standard residues stand in square brackets, D forms with d. Residues, ends and D or L forms follow the SMILES beside them. *: point of attachment. Cha = N[C@@H](CC1CCCCC1)C(=O)O; dCha = N[C@H](CC1CCCCC1)C(=O)O; dChg = N[C@@H](C(=O)O)C1CCCCC1; dPhg = N[C@@H](C(=O)O)c1ccccc1; pNA = O=[N+]([O-])c1ccc(N*)cc1; Chg = N[C@H](C(=O)O)C1CCCCC1; Phg = N[C@H](C(=O)O)c1ccccc1; dNva = CCC[C@@H](N)C(=O)O; dAbu = CC[C@@H](N)C(=O)O
What was measured:
Format in all cases: biochemical
[1] = target: T1, Urinkallikrein (Homo sapiens, UniProt P06870); test: Cleavage of chromogenic substrate by urinary kallikrein in human urine; details: 1 ml human urine (pooled morning urine of healthy persons), per min; Substratkonzentration 2 x 10^-4 molar
T1 construct: 1 ml Urin und 1 ml TRIS-Imidazol-Puffer mit pH 7,9; from tissue; host or cells: human urine

[2] = target: T2, Humanthrombin (Homo sapiens, UniProt P00734); test: Cleavage of chromogenic substrate by human NIH thrombin; details: 1 NIH-Einheit human thrombin, per min; Substratkonzentration 2 x 10^-4 molar
T2 construct: Humanplasmin und hu-manem NIH-Thrombin
Procedure, shortened: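 Thrombin hydrolysis of chromogenic p-nitroanilide substrate read spectrophotometrically at 405 nm; fluorogenic naphthylamine, methylcoumarylamine or di(methoxycarbonyl)phenylamine substrates read continuously by fluorescence emission at 400-470 nm. Activity taken as product formed per unit time; 1 µmol product/min defined as 1 enzyme unit for a given substrate.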

[3] = target: T3, Submandibularis-Kallikrein (Homo sapiens, UniProt P06870); test: Cleavage of chromogenic substrate by submandibular (glandular) kallikrein in human sputum; details: 1 ml human sputum, per min; Substratkonzentration 2 x 10^-4 molar
T3 construct: Man mischt 0,5 ml Sputum mit 2 ml TRIS-Imidazol-Puffer; from tissue; host or cells: human sputum
Procedure, shortened: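 Sputum mixed with TRIS-imidazole buffer (ionic strength 1.0), preincubated 5 min at 37°C and centrifuged; supernatant incubated with aqueous substrate solution (2 x 10^-3 M, stock). p-Nitroaniline release followed continuously at 405 nm for 5-10 min; activity expressed as mU per ml sputum from ΔOD/min.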

[4] = target: T4, Humanplasmin (Homo sapiens, UniProt P00747); test: Cleavage of chromogenic substrate by human plasmin; details: 1 CU-Einheit human plasmin, per min; Substratkonzentration 2 x 10^-4 molar
T4 construct: da bei der Aktivierung aus 1 Molekül Plasminogen 1 Molekül Plasmin entsteht
T4 sequence (P00747 581-810 limits assumed): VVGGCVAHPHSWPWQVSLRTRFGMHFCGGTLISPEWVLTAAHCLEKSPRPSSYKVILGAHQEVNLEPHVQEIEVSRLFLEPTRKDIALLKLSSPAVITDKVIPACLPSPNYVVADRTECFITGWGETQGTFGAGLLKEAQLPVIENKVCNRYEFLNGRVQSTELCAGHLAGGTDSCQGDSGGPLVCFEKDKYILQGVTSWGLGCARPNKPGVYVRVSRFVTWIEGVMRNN
T4 sequence (P00747 97-580 partner limits assumed): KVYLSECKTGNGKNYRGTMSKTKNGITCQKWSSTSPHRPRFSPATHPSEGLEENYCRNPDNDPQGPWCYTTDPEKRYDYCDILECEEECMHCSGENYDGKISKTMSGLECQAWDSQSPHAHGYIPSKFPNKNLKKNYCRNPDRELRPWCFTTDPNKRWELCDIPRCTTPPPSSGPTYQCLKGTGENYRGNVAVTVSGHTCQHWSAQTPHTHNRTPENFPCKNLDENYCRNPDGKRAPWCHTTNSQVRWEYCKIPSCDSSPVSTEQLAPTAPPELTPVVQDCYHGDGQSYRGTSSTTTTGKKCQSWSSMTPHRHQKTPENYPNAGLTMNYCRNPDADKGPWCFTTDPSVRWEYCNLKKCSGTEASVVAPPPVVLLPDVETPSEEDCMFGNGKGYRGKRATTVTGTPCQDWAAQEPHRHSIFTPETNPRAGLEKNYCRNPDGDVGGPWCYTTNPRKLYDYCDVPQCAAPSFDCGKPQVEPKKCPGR

T1 sequence (P06870 25-262): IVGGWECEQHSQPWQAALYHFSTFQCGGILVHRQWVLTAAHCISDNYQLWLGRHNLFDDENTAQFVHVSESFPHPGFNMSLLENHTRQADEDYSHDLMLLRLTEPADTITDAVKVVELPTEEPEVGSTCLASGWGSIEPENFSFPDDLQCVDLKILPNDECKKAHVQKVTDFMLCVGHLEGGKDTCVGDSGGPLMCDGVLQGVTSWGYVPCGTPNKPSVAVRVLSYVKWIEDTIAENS
T3 sequence (P06870 25-262): as above

| Molecule | Menge des durch 1 ml Humanurin pro Min. freigesetzten Spaltproduktes R-NH2 in Nanomol (Urinkallikrein) [1] | Menge des durch 1 NIH-Einheit Thrombin pro Min. freigesetzten Spaltproduktes R-NH2 in Nanomol (Humanthrombin) [2] | Menge des durch 1 ml Humansputum pro Min. freigesetzten Spaltproduktes R-NH2 in Nanomol (Submandibularis-Kallikrein) [3] | Menge des durch 1 CU-Einheit Humanplasmin pro Min. freigesetzten Spaltproduktes R-NH2 in Nanomol (Humanplasmin) [4] [Nanomol] |
| --- | --- | --- | --- | --- |
| CC(C)C[C@@H](N)C(=O)N[C@@H](CC1CCCCC1)C(=O)N[C@@H](CCCCN)C(=O)Nc1ccc([N+](=O)[O-])cc1 [Beispiel 73, 2HBr.H-D-Leu-CHA-Lys-pNA] (H-[dL]-[Cha]-Lys-pNA) | 1,73 Nanomol | 3,4 Nanomol | 19,3 Nanomol | 778 |
| N=C(N)NCCC[C@H](NC(=O)[C@H](CC1CCC(O)CC1)NC(=O)[C@H]1CCCN1)C(=O)Nc1ccc([N+](=O)[O-])cc1 (stereo partly drawn) [Beispiel 25, 2HBr.H-D-Pro-CHT-Arg-pNA] | 0,52 Nanomol | 1,52 Nanomol | 10,7 Nanomol | 390 |
| CC[C@@H](C)[C@@H](N)C(=O)N[C@@H](CC1CCCCC1)C(=O)N[C@@H](CCCNC(=N)N)C(=O)Nc1ccc([N+](=O)[O-])cc1 [Beispiel 13, 2HBr.H-D-Ile-CHA-Arg-pNA] (H-[dI]-[Cha]-Arg-pNA) | 2,67 Nanomol | 7,44 Nanomol | 36,6 Nanomol | 446 |
| N=C(N)NCCC[C@H](NC(=O)[C@@H]1CCCCN1C(=O)[C@H](N)CC1CCC(O)CC1)C(=O)Nc1ccc([N+](=O)[O-])cc1 (stereo partly drawn) [Beispiel 28, 2HBr.H-D-CHT-Pip-Arg-pNA] | 0 Nanomol | 80,4 Nanomol | 9,9 Nanomol | 122 |
| 2HBr.H-D-CHT-Tyr-Arg-pNA [Beispiel 45] | 0,59 Nanomol | 9,5 Nanomol | 10,9 Nanomol | 1252 |
| CC(C)[C@@H](N)C(=O)N[C@H](C(=O)N[C@@H](CCCCN)C(=O)Nc1ccc([N+](=O)[O-])cc1)C1CCCCC1 [Beispiel 30, 2AcOH.H-D-Val-CHG-Lys-pNA] (H-[dV]-[Chg]-Lys-pNA) | 0 Nanomol | 0,27 Nanomol | 1,3 Nanomol | 61 |
| CC[C@H](NC(=O)[C@H](N)CC1CCC(O)CC1)C(=O)N[C@@H](CCCNC(=N)N)C(=O)Nc1ccc([N+](=O)[O-])cc1 (stereo partly drawn) [Beispiel 77, 2HBr.H-D-CHT-But-Arg-pNA] | 0,64 Nanomol | 114,2 Nanomol | 18,2 Nanomol | 463 |
| CCC[C@@H](N)C(=O)N[C@H](C(=O)N[C@@H](CCCNC(=N)N)C(=O)Nc1ccc([N+](=O)[O-])cc1)c1ccccc1 [Beispiel 54, 2HBr.H-D-Nval-Ph'Gly-Arg-pNA] (H-[dNva]-[Phg]-Arg-pNA) | 0,58 Nanomol | 19,2 Nanomol | 22,9 Nanomol | 382 |
| CC[C@@H](N)C(=O)N[C@@H](CC1CCCCC1)C(=O)N[C@@H](CCCCN)C(=O)Nc1ccc([N+](=O)[O-])cc1 [Beispiel 72, 2HBr.H-D-But-CHA-Lys-pNA] (H-[dAbu]-[Cha]-Lys-pNA) | 2,22 Nanomol | 3,6 Nanomol | 21,0 Nanomol | 532 |
| N=C(N)NCCC[C@H](NC(=O)[C@H](CC1CCCCC1)NC(=O)[C@H](N)Cc1ccccc1)C(=O)Nc1ccc([N+](=O)[O-])cc1 [Beispiel 39, 2HBr.H-D-Phe-CHA-Arg-pNA] (H-[dF]-[Cha]-Arg-pNA) | 2,14 Nanomol | 3,9 Nanomol | 28,5 Nanomol | 814 |
| CC(C)C[C@H](NC(=O)[C@H](N)CC1CCCCC1)C(=O)N[C@@H](CCCNC(=N)N)C(=O)Nc1ccc([N+](=O)[O-])cc1 [Beispiel 52, 2HBr.H-D-CHA-Leu-Arg-pNA] (H-[dCha]-Leu-Arg-pNA) | 0,64 Nanomol | 57,6 Nanomol | 8,8 Nanomol | 555 |
| N=C(N)NCCC[C@H](NC(=O)[C@@H](NC(=O)[C@H](N)CC1CCCCC1)c1ccccc1)C(=O)Nc1ccc([N+](=O)[O-])cc1 [Beispiel 56, 2HBr.H-D-CHA-Ph'Gly-Arg-pNA] (H-[dCha]-[Phg]-Arg-pNA) | 0,64 Nanomol | 120,2 Nanomol | 29,4 Nanomol | 559 |
| N=C(N)NCCC[C@H](NC(=O)[C@H](CC1CCCCC1)NC(=O)[C@H](N)c1ccccc1)C(=O)Nc1ccc([N+](=O)[O-])cc1 [Beispiel 18, 2HBr.H-D-Ph'Gly-CHA-Arg-pNA] (H-[dPhg]-[Cha]-Arg-pNA) | 0,67 Nanomol | 4,53 Nanomol | 8,5 Nanomol | 1200 |
| N=C(N)NCCC[C@H](NC(=O)[C@@H]1CCCN1C(=O)[C@H](N)CC1CCCCC1)C(=O)Nc1ccc([N+](=O)[O-])cc1 [Beispiel 19, 2HBr.H-D-CHA-Pro-Arg-pNA] (H-[dCha]-Pro-Arg-pNA) | 1,40 Nanomol | 54,4 Nanomol | 8,1 Nanomol | 1200 |
| N=C(N)NCCC[C@H](NC(=O)[C@@H](NC(=O)[C@H](N)CC1CCC(O)CC1)c1ccccc1)C(=O)Nc1ccc([N+](=O)[O-])cc1 (stereo partly drawn) [Beispiel 57, 2HBr.H-D-CHT-Ph'Gly-Arg-pNA] | 0,45 Nanomol | 112,1 Nanomol | 31,1 Nanomol | 591 |
| NCCCC[C@H](NC(=O)[C@@H]1CCCN1C(=O)[C@H](N)CC1CCCCC1)C(=O)Nc1ccc([N+](=O)[O-])cc1 [Beispiel 29, 2AcOH.H-D-CHA-Pro-Lys-pNA] (H-[dCha]-Pro-Lys-pNA) | 0,71 Nanomol | 4,54 Nanomol | 4,4 Nanomol | 639 |
| N=C(N)NCCC[C@H](NC(=O)[C@H](CC1CCCCC1)NC(=O)[C@H](N)C1CCCCC1)C(=O)Nc1ccc([N+](=O)[O-])cc1 [Beispiel 1, H-D-CHG-CHA-Arg-pNA.2HBr] (H-[dChg]-[Cha]-Arg-pNA) | 0,84 Nanomol | 8,27 Nanomol | 12,9 Nanomol | 699 |
